Data from ChEMBL document CHEMBL5678818, “Discovery of potent SOS1 inhibitors that block RAS activation via disruption of the RAS-SOS1 interaction” (Proc Natl Acad Sci U S A, 2019).

Assays:
[1] = target: Calcium/calmodulin-dependent protein kinase type II subunit alpha (Homo sapiens) (UniProt Q9UQM7); assay: Inhibition of CAMK2A (unknown origin) assessed as residual activity at 100 nM by KINOMEscan analysis relative to control
[2] = target: T1, Cyclin-dependent kinase-like 2 (Homo sapiens) (UniProt Q92772); assay: Inhibition of CDKL2 (unknown origin) assessed as residual activity at 100 nM by KINOMEscan analysis relative to control
T1 sequence (whole entry): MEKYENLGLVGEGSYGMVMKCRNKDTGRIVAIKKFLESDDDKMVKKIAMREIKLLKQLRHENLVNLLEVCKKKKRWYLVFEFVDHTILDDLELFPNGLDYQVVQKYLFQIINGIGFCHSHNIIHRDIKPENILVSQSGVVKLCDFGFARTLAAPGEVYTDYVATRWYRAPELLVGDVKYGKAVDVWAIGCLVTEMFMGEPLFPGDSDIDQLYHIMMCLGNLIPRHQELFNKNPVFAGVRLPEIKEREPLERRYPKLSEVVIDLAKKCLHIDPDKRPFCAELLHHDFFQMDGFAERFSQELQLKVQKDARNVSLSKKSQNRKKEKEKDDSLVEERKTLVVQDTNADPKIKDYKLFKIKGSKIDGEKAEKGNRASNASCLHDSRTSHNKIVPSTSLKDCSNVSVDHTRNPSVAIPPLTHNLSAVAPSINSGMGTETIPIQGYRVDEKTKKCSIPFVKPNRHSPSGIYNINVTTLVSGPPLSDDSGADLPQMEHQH

[3] = target: Dual specificity protein kinase CLK2 (Homo sapiens) (UniProt P49760); assay: Inhibition of CLK2 (unknown origin) assessed as residual activity at 100 nM by KINOMEscan analysis relative to control
Chain of Dual specificity protein kinase CLK2 (Homo sapiens) (P49760 whole entry, looked up, the tested form may be a part): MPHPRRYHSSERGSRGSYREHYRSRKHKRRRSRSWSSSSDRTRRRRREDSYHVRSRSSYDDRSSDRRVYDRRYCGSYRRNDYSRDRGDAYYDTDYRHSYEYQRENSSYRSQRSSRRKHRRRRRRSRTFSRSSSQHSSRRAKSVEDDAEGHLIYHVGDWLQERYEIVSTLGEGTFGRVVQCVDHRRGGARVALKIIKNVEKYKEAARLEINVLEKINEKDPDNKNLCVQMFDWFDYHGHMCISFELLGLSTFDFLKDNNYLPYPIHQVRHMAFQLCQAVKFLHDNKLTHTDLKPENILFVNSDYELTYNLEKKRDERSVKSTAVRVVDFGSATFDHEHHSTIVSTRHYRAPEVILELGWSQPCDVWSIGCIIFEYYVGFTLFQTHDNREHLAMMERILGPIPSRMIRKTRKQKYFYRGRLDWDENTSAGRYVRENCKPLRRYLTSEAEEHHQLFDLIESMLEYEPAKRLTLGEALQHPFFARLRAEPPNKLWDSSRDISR

[4] = target: Epithelial discoidin domain-containing receptor 1 (Homo sapiens) (UniProt Q08345); assay: Inhibition of DDR1 (unknown origin) assessed as residual activity at 100 nM by KINOMEscan analysis relative to control
Chain of Epithelial discoidin domain-containing receptor 1 (Homo sapiens) (Q08345 whole entry, the tested form may be a part): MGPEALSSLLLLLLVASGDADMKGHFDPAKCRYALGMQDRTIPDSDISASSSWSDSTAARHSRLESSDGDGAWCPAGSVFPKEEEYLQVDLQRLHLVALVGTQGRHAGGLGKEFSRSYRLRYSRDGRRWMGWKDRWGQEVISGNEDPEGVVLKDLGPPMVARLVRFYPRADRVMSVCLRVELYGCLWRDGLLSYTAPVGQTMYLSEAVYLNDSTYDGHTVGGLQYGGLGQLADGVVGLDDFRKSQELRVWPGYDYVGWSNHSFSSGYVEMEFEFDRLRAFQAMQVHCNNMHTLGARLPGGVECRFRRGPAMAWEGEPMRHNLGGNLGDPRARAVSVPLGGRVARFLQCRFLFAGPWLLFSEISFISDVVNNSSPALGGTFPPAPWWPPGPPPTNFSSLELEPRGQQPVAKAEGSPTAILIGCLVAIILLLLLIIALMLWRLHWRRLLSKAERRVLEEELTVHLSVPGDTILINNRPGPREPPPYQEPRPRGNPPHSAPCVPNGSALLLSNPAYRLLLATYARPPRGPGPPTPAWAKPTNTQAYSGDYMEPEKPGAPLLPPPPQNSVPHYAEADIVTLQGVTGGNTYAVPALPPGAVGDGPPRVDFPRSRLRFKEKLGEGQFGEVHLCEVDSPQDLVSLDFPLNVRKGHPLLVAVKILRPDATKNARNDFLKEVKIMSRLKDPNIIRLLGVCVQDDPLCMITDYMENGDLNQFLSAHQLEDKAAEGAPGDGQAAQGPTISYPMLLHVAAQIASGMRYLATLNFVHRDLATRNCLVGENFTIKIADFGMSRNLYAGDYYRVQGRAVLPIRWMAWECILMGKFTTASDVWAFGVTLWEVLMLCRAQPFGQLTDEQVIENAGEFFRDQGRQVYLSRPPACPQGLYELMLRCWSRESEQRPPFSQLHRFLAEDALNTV

[5] = target: Mitogen-activated protein kinase 4 (Homo sapiens) (UniProt P31152); assay: Inhibition of ERK4 (unknown origin) assessed as residual activity at 100 nM by KINOMEscan analysis relative to control
Chain of Mitogen-activated protein kinase 4 (Homo sapiens) (P31152 whole entry): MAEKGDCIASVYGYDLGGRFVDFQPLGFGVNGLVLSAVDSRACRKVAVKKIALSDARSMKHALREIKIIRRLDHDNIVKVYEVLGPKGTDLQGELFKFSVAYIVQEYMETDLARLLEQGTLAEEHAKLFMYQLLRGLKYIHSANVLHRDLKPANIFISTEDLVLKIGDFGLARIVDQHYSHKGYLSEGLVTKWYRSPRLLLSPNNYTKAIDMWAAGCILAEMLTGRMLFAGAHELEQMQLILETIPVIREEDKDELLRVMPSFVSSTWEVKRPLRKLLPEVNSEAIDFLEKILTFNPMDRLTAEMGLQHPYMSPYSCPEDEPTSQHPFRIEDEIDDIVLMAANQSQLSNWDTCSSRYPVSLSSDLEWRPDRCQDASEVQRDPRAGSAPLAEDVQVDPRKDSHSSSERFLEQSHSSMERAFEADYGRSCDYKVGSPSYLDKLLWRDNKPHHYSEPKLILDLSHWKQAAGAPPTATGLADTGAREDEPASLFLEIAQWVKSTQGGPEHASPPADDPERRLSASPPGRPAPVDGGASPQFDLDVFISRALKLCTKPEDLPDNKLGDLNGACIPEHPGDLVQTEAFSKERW

[6] = target: Fibroblast growth factor receptor 2 (Homo sapiens) (UniProt P21802); assay: Inhibition of FGFR2 (unknown origin) assessed as residual activity at 100 nM by KINOMEscan analysis relative to control
Chain of Fibroblast growth factor receptor 2 (Homo sapiens) (P21802 22-821 limits assumed): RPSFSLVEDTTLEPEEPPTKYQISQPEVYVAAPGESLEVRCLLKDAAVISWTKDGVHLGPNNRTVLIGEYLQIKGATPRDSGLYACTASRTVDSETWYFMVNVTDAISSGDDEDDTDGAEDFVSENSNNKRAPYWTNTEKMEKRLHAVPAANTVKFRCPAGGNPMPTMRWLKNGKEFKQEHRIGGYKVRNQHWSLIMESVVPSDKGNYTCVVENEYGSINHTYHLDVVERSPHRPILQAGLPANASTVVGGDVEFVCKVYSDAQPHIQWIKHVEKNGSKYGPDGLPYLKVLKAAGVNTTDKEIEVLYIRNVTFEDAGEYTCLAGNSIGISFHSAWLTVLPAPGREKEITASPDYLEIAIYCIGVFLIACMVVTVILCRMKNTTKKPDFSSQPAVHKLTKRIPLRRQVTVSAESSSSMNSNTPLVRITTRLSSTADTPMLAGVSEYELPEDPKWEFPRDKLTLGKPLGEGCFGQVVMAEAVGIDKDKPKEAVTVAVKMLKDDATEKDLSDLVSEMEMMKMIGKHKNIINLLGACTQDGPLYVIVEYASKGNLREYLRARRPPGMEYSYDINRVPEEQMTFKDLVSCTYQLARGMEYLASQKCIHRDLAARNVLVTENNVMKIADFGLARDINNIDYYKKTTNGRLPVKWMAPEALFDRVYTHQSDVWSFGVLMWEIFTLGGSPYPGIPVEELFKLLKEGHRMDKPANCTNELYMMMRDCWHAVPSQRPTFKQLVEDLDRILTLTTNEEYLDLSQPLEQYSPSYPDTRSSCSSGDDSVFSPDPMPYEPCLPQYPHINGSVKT

[7] = target: Interleukin-1 receptor-associated kinase 1 (Homo sapiens) (UniProt P51617); assay: Inhibition of IRAK1 (unknown origin) assessed as residual activity at 100 nM by KINOMEscan analysis relative to control
Chain of Interleukin-1 receptor-associated kinase 1 (Homo sapiens) (P51617 whole entry, looked up, the tested form may be a part): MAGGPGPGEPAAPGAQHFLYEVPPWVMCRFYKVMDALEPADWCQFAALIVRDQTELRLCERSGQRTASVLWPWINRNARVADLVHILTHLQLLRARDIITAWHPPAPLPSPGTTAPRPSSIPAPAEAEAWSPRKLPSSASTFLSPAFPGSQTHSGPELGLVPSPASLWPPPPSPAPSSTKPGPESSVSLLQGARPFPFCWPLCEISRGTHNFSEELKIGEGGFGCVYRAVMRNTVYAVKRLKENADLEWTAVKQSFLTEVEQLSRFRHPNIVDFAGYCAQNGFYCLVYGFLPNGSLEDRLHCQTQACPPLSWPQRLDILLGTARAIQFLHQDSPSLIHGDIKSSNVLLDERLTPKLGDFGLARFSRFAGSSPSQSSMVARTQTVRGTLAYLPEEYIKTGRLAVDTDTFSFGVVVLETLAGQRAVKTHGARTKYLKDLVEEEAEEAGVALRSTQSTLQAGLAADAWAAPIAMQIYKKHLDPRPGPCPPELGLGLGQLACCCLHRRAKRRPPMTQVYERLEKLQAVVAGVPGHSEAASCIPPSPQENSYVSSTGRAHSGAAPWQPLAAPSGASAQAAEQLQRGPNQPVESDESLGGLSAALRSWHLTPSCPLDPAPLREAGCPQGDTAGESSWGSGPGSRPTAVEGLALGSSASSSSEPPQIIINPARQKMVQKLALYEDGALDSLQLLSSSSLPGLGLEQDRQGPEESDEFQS

[8] = target: Tyrosine-protein kinase JAK1 (Homo sapiens) (UniProt P23458); assay: Inhibition of JAK1 JH1 catalytic domain (unknown origin) assessed as residual activity at 100 nM by KINOMEscan analysis relative to control
[9] = target: Serine/threonine-protein kinase 24 (Homo sapiens) (UniProt Q9Y6E0); assay: Inhibition of MST3 (unknown origin) assessed as residual activity at 100 nM by KINOMEscan analysis relative to control
Chain of Serine/threonine-protein kinase 24 (Homo sapiens) (Q9Y6E0 whole entry, looked up): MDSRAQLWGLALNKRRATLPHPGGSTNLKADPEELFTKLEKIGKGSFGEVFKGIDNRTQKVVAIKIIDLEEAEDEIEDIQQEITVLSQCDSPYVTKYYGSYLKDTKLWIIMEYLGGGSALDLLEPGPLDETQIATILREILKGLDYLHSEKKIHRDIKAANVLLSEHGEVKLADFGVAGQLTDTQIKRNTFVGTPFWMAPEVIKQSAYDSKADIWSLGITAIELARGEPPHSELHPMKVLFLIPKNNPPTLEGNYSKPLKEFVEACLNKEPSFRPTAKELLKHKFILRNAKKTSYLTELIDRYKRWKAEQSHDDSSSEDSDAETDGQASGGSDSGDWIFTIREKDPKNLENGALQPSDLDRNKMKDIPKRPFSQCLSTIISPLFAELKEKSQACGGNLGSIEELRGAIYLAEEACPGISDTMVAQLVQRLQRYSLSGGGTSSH

[10] = target: T2, Serine/threonine-protein kinase Nek9 (Homo sapiens) (UniProt Q8TD19); assay: Inhibition of NEK9 (unknown origin) assessed as residual activity at 100 nM by KINOMEscan analysis relative to control
T2 sequence (whole entry): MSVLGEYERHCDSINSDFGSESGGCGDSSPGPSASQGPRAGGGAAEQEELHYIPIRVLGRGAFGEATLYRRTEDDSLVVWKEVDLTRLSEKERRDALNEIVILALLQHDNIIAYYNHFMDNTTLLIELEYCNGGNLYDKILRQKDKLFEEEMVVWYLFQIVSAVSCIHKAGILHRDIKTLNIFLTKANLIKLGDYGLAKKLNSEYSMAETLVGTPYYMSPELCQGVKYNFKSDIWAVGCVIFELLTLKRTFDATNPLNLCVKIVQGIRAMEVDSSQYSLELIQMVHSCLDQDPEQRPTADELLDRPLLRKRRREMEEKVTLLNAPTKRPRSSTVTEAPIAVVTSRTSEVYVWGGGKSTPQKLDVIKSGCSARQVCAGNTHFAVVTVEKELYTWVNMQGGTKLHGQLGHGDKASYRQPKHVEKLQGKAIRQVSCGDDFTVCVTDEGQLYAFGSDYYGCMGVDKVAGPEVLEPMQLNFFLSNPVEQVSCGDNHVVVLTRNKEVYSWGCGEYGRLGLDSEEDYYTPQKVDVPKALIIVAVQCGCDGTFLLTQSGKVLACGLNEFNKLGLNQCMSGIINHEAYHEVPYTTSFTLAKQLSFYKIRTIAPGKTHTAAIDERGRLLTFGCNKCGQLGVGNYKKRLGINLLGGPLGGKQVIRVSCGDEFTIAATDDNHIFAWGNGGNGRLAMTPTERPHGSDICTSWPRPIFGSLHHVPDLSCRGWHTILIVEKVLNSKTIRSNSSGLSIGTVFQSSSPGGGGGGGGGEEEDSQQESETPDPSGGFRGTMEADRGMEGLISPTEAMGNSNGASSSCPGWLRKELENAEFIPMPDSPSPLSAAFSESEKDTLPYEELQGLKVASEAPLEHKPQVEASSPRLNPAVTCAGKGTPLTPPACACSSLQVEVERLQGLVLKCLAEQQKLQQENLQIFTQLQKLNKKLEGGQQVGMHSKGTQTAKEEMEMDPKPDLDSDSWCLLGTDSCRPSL

[11] = target: T3, 3-phosphoinositide-dependent protein kinase 1 (Homo sapiens) (UniProt O15530); assay: Inhibition of PDPK1 (unknown origin) assessed as residual activity at 100 nM by KINOMEscan analysis relative to control
T3 sequence (whole entry): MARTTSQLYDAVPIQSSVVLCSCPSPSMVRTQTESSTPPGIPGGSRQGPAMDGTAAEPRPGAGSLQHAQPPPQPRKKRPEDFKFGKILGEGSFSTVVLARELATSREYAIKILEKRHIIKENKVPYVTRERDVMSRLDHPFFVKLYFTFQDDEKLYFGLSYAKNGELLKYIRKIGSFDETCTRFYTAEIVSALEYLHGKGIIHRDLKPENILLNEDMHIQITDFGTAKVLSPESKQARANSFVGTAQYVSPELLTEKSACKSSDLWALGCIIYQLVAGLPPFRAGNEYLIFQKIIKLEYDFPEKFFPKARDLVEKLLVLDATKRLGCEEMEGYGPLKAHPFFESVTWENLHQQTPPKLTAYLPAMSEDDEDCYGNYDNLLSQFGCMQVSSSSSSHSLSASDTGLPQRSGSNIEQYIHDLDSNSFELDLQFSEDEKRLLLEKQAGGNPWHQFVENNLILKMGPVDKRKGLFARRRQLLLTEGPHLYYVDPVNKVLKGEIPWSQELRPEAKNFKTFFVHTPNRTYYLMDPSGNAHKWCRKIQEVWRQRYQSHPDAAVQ

[12] = target: Serine/threonine-protein kinase tousled-like 2 (Homo sapiens) (UniProt Q86UE8); assay: Inhibition of TLK2 (unknown origin) assessed as residual activity at 100 nM by KINOMEscan analysis relative to control
Chain of Serine/threonine-protein kinase tousled-like 2 (Homo sapiens) (Q86UE8 whole entry, looked up): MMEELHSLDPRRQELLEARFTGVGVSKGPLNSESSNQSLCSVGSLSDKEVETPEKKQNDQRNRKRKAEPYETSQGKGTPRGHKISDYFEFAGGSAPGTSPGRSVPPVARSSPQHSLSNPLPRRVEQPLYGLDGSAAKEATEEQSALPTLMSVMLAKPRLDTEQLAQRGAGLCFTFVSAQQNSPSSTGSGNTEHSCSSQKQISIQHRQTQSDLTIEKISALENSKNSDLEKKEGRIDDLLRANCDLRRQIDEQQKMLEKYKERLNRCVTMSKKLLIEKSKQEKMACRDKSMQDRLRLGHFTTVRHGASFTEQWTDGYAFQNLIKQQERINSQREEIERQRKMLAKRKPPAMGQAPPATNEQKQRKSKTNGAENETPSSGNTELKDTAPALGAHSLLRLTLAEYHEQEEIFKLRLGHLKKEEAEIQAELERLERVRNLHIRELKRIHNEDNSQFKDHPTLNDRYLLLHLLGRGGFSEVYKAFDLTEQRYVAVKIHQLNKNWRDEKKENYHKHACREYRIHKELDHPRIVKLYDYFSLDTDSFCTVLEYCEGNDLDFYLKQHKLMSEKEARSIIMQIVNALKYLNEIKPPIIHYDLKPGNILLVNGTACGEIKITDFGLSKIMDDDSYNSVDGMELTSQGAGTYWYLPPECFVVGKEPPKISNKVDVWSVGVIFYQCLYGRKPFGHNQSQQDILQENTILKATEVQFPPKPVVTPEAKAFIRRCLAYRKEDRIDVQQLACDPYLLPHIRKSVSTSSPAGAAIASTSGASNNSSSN

SMILES: COc1cc2ncnc(N[C@H](C)c3cccc4ccccc34)c2cc1OC
- Activity [1]: 96%
- Activity [2]: 88%
- Activity [3]: 100%
- Activity [4]: 100%
- Activity [5]: 100%
- Activity [6]: 80%
- Activity [7]: 94%
- Activity [8]: 79%
- Activity [9]: 99%
- Activity [10]: 100%
- Activity [11]: 79%
- Activity [12]: 91%
